Conditions: 357.06 K, Fluid (supercritical or subcritical phases), Vibrating tube method

FC(F)=C(F)C(F)(F)F [hexafluoropropene]
Conditions | mass density [kg/m3]
415.8 kPa | 21.9
430.3 kPa | 22.74
445 kPa | 23.53
459.8 kPa | 24.37
474.6 kPa | 25.15
489.6 kPa | 26
504.5 kPa | 26.95
519.5 kPa | 27.84
534.4 kPa | 28.66
549.4 kPa | 29.55
564.2 kPa | 30.41
579 kPa | 31.28
593.8 kPa | 32.12
604.8 kPa | 32.81
619.6 kPa | 33.65
634.3 kPa | 34.49
648.9 kPa | 35.43
663.4 kPa | 36.27
677.9 kPa | 37.14
692.4 kPa | 37.98
706.7 kPa | 38.87
721 kPa | 39.69
735.2 kPa | 40.55
749.2 kPa | 41.45
763.3 kPa | 42.35
777.3 kPa | 43.14
791.2 kPa | 44.03
805.1 kPa | 44.87
818.9 kPa | 45.78
832.6 kPa | 46.65
846.3 kPa | 47.44
859.8 kPa | 48.34
873.5 kPa | 49.21
887 kPa | 50.07
900.7 kPa | 50.9
927.4 kPa | 52.68
940.7 kPa | 53.53
953.9 kPa | 54.39
966.4 kPa | 55.2
980.4 kPa | 56.19
992.5 kPa | 56.92
1019.3 kPa | 58.76
1047.3 kPa | 60.62
1075 kPa | 62.53
1101.6 kPa | 64.29
1126.7 kPa | 66.03
1151 kPa | 67.74
1176.3 kPa | 69.58
1201.9 kPa | 71.4
1228.4 kPa | 73.29
1259 kPa | 75.66
1289.5 kPa | 77.81
1322.3 kPa | 80.32
1338.6 kPa | 81.39
1356.1 kPa | 82.86
1372.3 kPa | 84.1
1389.3 kPa | 85.41
1417.8 kPa | 87.61
1448.6 kPa | 89.98
1476.5 kPa | 92.14
1508.7 kPa | 94.88
1525.6 kPa | 96.25
1543.7 kPa | 97.72
1568 kPa | 99.77
1585.8 kPa | 101.24
1616.4 kPa | 103.7
1633.9 kPa | 105.22

— the NIST ThermoML archive (doi:10.1021/je900596d)
